Experiment [1] relates to rabbit portal vein. In words: Electrically induced submaximal contractions of isolated portal vein. It counts as cell-based. The following applies: Oryctolagus cuniculus, read-out: El.stim. portal vein % inhibition by 1 µM.
Experiment [2] has as its system albino mice. Description: Mydriatic effect, pupil diameter in unanaesthetized mice after intravenous dosing. The class given is in vivo.
Description: For studying the mydriatic effect of the compounds un­anaesthetized albino mice were used. The substance was given intravenously in different doses and the pupil diame­ter was measured by means of a microscope every tenth minute until the effect disappeared.
Experiment [3] has as its system rabbit urinary bladder. Description: Anticholinergic effect on carbachol-stimulated isolated urinary bladder strips. The class given is cell-based. The following applies: Oryctolagus cuniculus, read-out: Carbachol stim.rabbit urinary bladder KD.
Description: (§1) Carbachol was used as an agonist and was added to the organ bath cumulatively.
For experiment [4], the system named is rabbit papillary muscles. In words: Electrically stimulated isolated papillary muscle (heart), contraction amplitude. It counts as cell-based. The following applies: Oryctolagus cuniculus, read-out: El.stim. papillary muscle, % inhibition of 1 µM.
Excerpt: The effects on heart were investigated by using isolated, rabbit papillary muscles, which were electrically stimulated at a submaximum frequency. The contraction amplitude was re­corded.
Experiment [5] concerns rabbit urinary bladder. Description: Inhibition of electrically induced contractions of isolated urinary bladder strips. The following applies: Oryctolagus cuniculus; electrically stimulated isolated rabbit bladder strips; only about half of the contractile response is mediated by cholinergic nerves; read-out: El.stim. rabbit urinary bladder IC50. It counts as cell-based.
Description: as §1
Experiment [6] relates to muscarinic receptors. Description: Selectivity factor: isolated human urinary bladder versus human salivary gland (QNB radioligand). The class given is binding. The following applies: quotient of inhibitory concentration on isolated human urinary bladder and human salivary gland; lower figure = higher selectivity for the bladder. An excerpt: The human salivary glands were obtained from patients undergoing operation for treatment of cancer in these glands. As the radioligand by which the muscarinic receptors were label led, QNB was used. The method is described in detail by S. Batra et al. in Psychopharmacology, 1986, 90, 1-4.

The mark [7] stands for this setting: 1 µM, isolated rabbit portal vein, electrically stimulated.
Where [8] appears, read: carbachol as agonist, added cumulatively, isolated rabbit bladder strips.
Where [9] appears, read: 1 µM, isolated rabbit papillary muscle, electrically stimulated.

This is an account of results in EP0367040A1, “Compounds for the treatment of urinary incontinence” (Kabi Pharmacia AB, priority 1988, dated 1990).

Where two headings read alike, the source gives them in different places.

On to `CCN(CC)CC#CCOC(=O)C(O)(c1ccccc1)C1CCCCC1` (stereo not shown) [Oxybutynin, 2-cyclohexyl-2-hydroxy-2-phenylacetic acid 4-(diethylamino)-2-butynyl ester, reference compound], for which the inhibition – broadly, the share of the control response that was lost under treatment – at 1 µM in experiment [1] came to 6%; in experiment [4], 3%. The “Mydriatic effect, % dilatation by 1 mg/kg i.v.” value (from here on “Mydriatic effect, % dilatation”) in experiment [2] is 95%. In experiment [3], the Kb is 6 nM.
For the compound `CC(C)N(CCN(C)C(=O)C(c1ccccc1)c1ccccc1)C(C)C.Cl` [Example No 3, N-methyl-N-(2-diisopropylaminoethyl)-2,2-diphenyl-acetamide hydrochloride], the figures for the inhibition at 1 µM in experiment [1] (setting [7]) and in experiment [4] (setting [9]) were 10% and 8%, respectively. Besides, the “Mydriatic effect, % dilatation” value in experiment [2] is given as 2%. Also, the Kb in experiment [3] (setting [8]) was determined as 60 nM. Moreover, the IC50 (as a rule, the concentration at which inhibition is half-maximal) in experiment [5] was found to be 8500 nM. Moreover, in experiment [6], the “Selectivity factor for human urinary bladder in comparison with human salivary gland” value (“Selectivity factor” below) is given as 6.
For `CC(C)N(CCCN(C)C(=O)C(c1ccccc1)c1ccccc1)C(C)C` [Example No 4, N-methyl-N-(3-diisopropylaminopropyl)-2,2 diphenylacetamide], the inhibition at 1 µM in experiment [1] (setting [7]) was found to be 4%; in experiment [4] (setting [9]), 9%. In experiment [2], the “Mydriatic effect, % dilatation” value worked out at 0%. Besides, in experiment [3] (setting [8]), the Kb is 550 nM. In experiment [5], the IC50 is 35200 nM. In addition, the “Selectivity factor” value in experiment [6] amounted to 5.
Regarding `CN1[C@@H]2CC[C@H]1C[C@@H](OC(=O)C(CO)c1ccccc1)C2` (stereo partly shown) [Atropine, reference compound], the inhibition at 1 µM in experiment [1] stood at 20%; in experiment [4], 5%. Further, the Kb in experiment [3] amounted to 2 nM.
As for `CC(CC(c1ccccc1)c1ccccc1)NC(C)(C)C` (stereo not shown) [Terodiline, N-t-butyl-3,3-diphenyl-1-methylpropylamine, reference compound], the figures for the inhibition at 1 µM in experiment [1] (setting [7]) and in experiment [4] (setting [9]) were 4% and 14%, respectively. Besides, in experiment [2], the “Mydriatic effect, % dilatation” value was 1%. The Kb in experiment [3] (setting [8]) worked out at 220 nM. Further, the IC50 in experiment [5] is 14500 nM. In experiment [6], the “Selectivity factor” value turned out to be 93.
For `CC(C)N(CCNC(=O)C(c1ccccc1)c1ccccc1)C(C)C` [Example No 10, N-(2-diisopropylaminoetyl)-2,2-diphenylacetamide], the values for the inhibition at 1 µM in experiment [1] (setting [7]) and in experiment [4] (setting [9]) were 10% and 0%, respectively. Moreover, in experiment [2], the “Mydriatic effect, % dilatation” value is 11%. In addition, the Kb in experiment [3] (setting [8]) was determined as 110 nM. Also, in experiment [5], the IC50 was 5300 nM. For the same compound, the “Selectivity factor” value in experiment [6] is on record as 6.
Consider `CN(CCCN(C)C(C)(C)C)C(=O)C(c1ccccc1)c1ccccc1.Cl` [Example No 7, N-methyl-N-[3-(N-methyl-N-tert-butyl-amino)propyl]-2,2-diphenylacetamide hydrochloride], for which the inhibition at 1 µM in experiment [1] (setting [7]) came out at 4%; in experiment [4] (setting [9]), 0%. In experiment [2], the “Mydriatic effect, % dilatation” value turned out to be 0%. For the same compound, the Kb in experiment [3] (setting [8]) was determined as 2900 nM. The IC50 in experiment [5] came to 25700 nM. Further, in experiment [6], the “Selectivity factor” value is 2.
